17 molecules from patent US20260297081A1, “COMPOUNDS AND METHODS OF TREATING CANCERS” (Cullgen Inc., priority 2023, published 2026) can be followed below.

SMILES strings stand for the structures.

The test system of the experiment is MCF7 cells. Nature of the experiment: Anti-proliferation (viability) of MCF7 cells (Table 7, FIG. 2B). The experiment is classed as cell-based. As to conditions: Homo sapiens, MCF7, MCF7 cells, 3-6 days, 10-point serial dilution; read-out: GI IC50 in MCF-7.

The IC50 is the point on the concentration scale where inhibition reaches its midpoint.

As to `CC(=O)c1c(C)c2cnc(Nc3ccc(N4CCN(CC(=O)NC(C)(C)C5CC(Nc6nc(NC(C)C)ccc6C(=O)Nc6cc(C)on6)C5)CC4)cn3)nc2n(C2CCCC2)c1=O` (centres unmarked) [CPD-410, 2-((3-(2-(2-(4-(6-((6-acetyl-8-cyclopentyl-5-methyl-7-oxo-7,8-dihydropyrido[2,3-d]pyrimidin-2-yl)amino)pyridin-3-yl)piperazin-1-yl)acetamido)propan-2-yl)cyclobutyl)amino)-6-(isopropylamino)-N-(5-methylisoxazol-3-yl)nicotinamide], the IC50 is above 100 nM.

In the case of `CC(=O)c1c(C)c2cnc(Nc3ccc(N4CCC5(CC4)CC5C(=O)N4CC5(CC(Nc6nc(NC(C)C)ccc6C(=O)Nc6cn(C)c(C7CC7)n6)C5)C4)cn3)nc2n(C2CCCC2)c1=O` (centres unmarked) [CPD-412, 2-((2-(6-(6-((6-acetyl-8-cyclopentyl-5-methyl-7-oxo-7,8-dihydropyrido[2,3-d]pyrimidin-2-yl)amino)pyridin-3-yl)-6-azaspiro[2.5]octane-1-carbonyl)-2-azaspiro[3.3]heptan-6-yl)amino)-N-(2-cyclopropyl-1-methyl-1H-imidazol-4-yl)-6-(isopropylamino)nicotinamide], the concentration for half-maximal inhibition (IC50) was above 100 nM.

Turning to `CC(=O)c1c(C)c2cnc(Nc3ccc(N4CCC5(CC4)CC5C(=O)NC4CC(Nc5nc(NC(C)C)ccc5C(=O)Nc5ccc(N(C)C)nn5)C4)cn3)nc2n(C2CCCC2)c1=O` (centres unmarked) [CPD-413, 6-(6-((6-acetyl-8-cyclopentyl-5-methyl-7-oxo-7,8-dihydropyrido[2,3-d]pyrimidin-2-yl)amino)pyridin-3-yl)-N-(3-((3-((6-(dimethylamino)pyridazin-3-yl)carbamoyl)-6-(isopropylamino)pyridin-2-yl)amino)cyclobutyl)-6-azaspiro[2.5]octane-1-carboxamide], the half-maximal inhibitory concentration (IC50) is above 100 nM.

In the case of `CC(=O)c1c(C)c2cnc(Nc3ccc(N4CCC5(CC4)CC5C(=O)N4CC5(CC(Nc6nc(NC(C)C)ccc6C(=O)Nc6cc(C)n(C)n6)C5)C4)cn3)nc2n(C2CCCC2)c1=O` (centres unmarked) [CPD-415, 2-((2-(6-(6-((6-acetyl-8-cyclopentyl-5-methyl-7-oxo-7,8-dihydropyrido[2,3-d]pyrimidin-2-yl)amino)pyridin-3-yl)-6-azaspiro[2.5]octane-1-carbonyl)-2-azaspiro[3.3]heptan-6-yl)amino)-N-(1,5-dimethyl-1H-pyrazol-3-yl)-6-(isopropylamino)nicotinamide], the IC50 is below 50 nM.

Regarding `CNc1ccc(C(=O)Nc2ccc(N(C)C)nn2)c(NC2CCC3(CC(NC(=O)CN4CCN(c5ccc(Nc6ncc7c(C)c(C(C)=O)c(=O)n(C8CCCC8)c7n6)nc5)CC4)C3)C2)n1` (centres unmarked) [CPD-416, 2-((2-(2-(4-(6-((6-acetyl-8-cyclopentyl-5-methyl-7-oxo-7,8-dihydropyrido[2,3-d]pyrimidin-2-yl)amino)pyridin-3-yl)piperazin-1-yl)acetamido)spiro[3.4]octan-6-yl)amino)-N-(6-(dimethylamino)pyridazin-3-yl)-6-(methylamino)nicotinamide], the concentration for half-maximal inhibition (IC50) was above 100 nM.

Regarding `CC(=O)c1c(C)c2cnc(Nc3ccc(N4CCC5(CC4)CC5C(=O)NC4CCC(Nc5nc(NC(C)C)ccc5C(=O)Nc5ccc(N(C)C)nn5)C4)cn3)nc2n(C2CCCC2)c1=O` (centres unmarked) [CPD-417, 6-(6-((6-acetyl-8-cyclopentyl-5-methyl-7-oxo-7,8-dihydropyrido[2,3-d]pyrimidin-2-yl)amino)pyridin-3-yl)-N-(3-((3-((6-(dimethylamino)pyridazin-3-yl)carbamoyl)-6-(isopropylamino)pyridin-2-yl)amino)cyclopentyl)-6-azaspiro[2.5]octane-1-carboxamide], the IC50 is above 100 nM.

Regarding `CC(=O)c1c(C)c2cnc(Nc3ccc(N4CC5(CN(CC(=O)N6CCC(Nc7nc(NC(C)C)ccc7C(=O)Nc7ccc(N(C)C)nn7)CC6)C5)C4)cn3)nc2n(C2CCCC2)c1=O` [CPD-418, 2-((1-(2-(6-(6-((6-acetyl-8-cyclopentyl-5-methyl-7-oxo-7,8-dihydropyrido[2,3-d]pyrimidin-2-yl)amino)pyridin-3-yl)-2,6-diazaspiro[3.3]heptan-2-yl)acetyl)piperidin-4-yl)amino)-N-(6-(dimethylamino)pyridazin-3-yl)-6-(isopropylamino)nicotinamide], the concentration for half-maximal inhibition (IC50) was below 50 nM.

On to `CC(=O)c1c(C)c2cnc(Nc3ccc(N4CCC5(CC4)CC5C(=O)N4CCC(Nc5nc(NC(C)C)ccc5C(=O)Nc5cc(C)on5)CC4)cn3)nc2n(C2CCCC2)c1=O` (centres unmarked) [CPD-419, 2-((1-(6-(6-((6-acetyl-8-cyclopentyl-5-methyl-7-oxo-7,8-dihydropyrido[2,3-d]pyrimidin-2-yl)amino)pyridin-3-yl)-6-azaspiro[2.5]octane-1-carbonyl)piperidin-4-yl)amino)-6-(isopropylamino)-N-(5-methylisoxazol-3-yl)nicotinamide], for which the IC50 is below 50 nM.

Take `CC(=O)c1c(C)c2cnc(Nc3ccc(CN4CCN(CC(=O)N5CCC(Nc6nc(NC(C)C)ccc6C(=O)Nc6cn(C)c(C7CC7)n6)CC5)CC4)cn3)nc2n(C2CCCC2)c1=O` [CPD-420, 2-((1-(2-(4-((6-((6-acetyl-8-cyclopentyl-5-methyl-7-oxo-7,8-dihydropyrido[2,3-d]pyrimidin-2-yl)amino)pyridin-3-yl)methyl)piperazin-1-yl)acetyl)piperidin-4-yl)amino)-N-(2-cyclopropyl-1-methyl-1H-imidazol-4-yl)-6-(isopropylamino)nicotinamide]: the half-inhibitory concentration (IC50) is above 100 nM.

`CC(=O)c1c(C)c2cnc(Nc3ccc(CN4CCN(CC(=O)N5CCC(Nc6nc(NC(C)C)ccc6C(=O)Nc6cc(C)n(C)n6)CC5)CC4)cn3)nc2n(C2CCCC2)c1=O` [CPD-421, 2-((1-(2-(4-((6-((6-acetyl-8-cyclopentyl-5-methyl-7-oxo-7,8-dihydropyrido[2,3-d]pyrimidin-2-yl)amino)pyridin-3-yl)methyl)piperazin-1-yl)acetyl)piperidin-4-yl)amino)-N-(1,5-dimethyl-1H-pyrazol-3-yl)-6-(isopropylamino)nicotinamide]: the IC50 was above 100 nM.

As for `CC(=O)c1c(C)c2cnc(Nc3ccc(N4CC5(CN(CC(=O)N6CC7(CC(Nc8nc(NC(C)C)ccc8C(=O)Nc8ccc(N(C)C)nn8)C7)C6)C5)C4)cn3)nc2n(C2CCCC2)c1=O` [CPD-423, 2-((2-(2-(6-(6-((6-acetyl-8-cyclopentyl-5-methyl-7-oxo-7,8-dihydropyrido[2,3-d]pyrimidin-2-yl)amino)pyridin-3-yl)-2,6-diazaspiro[3.3]heptan-2-yl)acetyl)-2-azaspiro[3.3]heptan-6-yl)amino)-N-(6-(dimethylamino)pyridazin-3-yl)-6-(isopropylamino)nicotinamide], the half-maximal inhibitory concentration (IC50) is 50 to 100 nM.

For `CC(=O)c1c(C)c2cnc(Nc3ccc(N4CC5(CN(CC(=O)N6CCC(Nc7nc(NC(C)C)ccc7C(=O)Nc7ccc(N(C)C)nn7)C6)C5)C4)cn3)nc2n(C2CCCC2)c1=O` (centres unmarked) [CPD-424, 2-((1-(2-(6-(6-((6-acetyl-8-cyclopentyl-5-methyl-7-oxo-7,8-dihydropyrido[2,3-d]pyrimidin-2-yl)amino)pyridin-3-yl)-2,6-diazaspiro[3.3]heptan-2-yl)acetyl)pyrrolidin-3-yl)amino)-N-(6-(dimethylamino)pyridazin-3-yl)-6-(isopropylamino)nicotinamide], the half-maximal inhibitory concentration (IC50) is above 100 nM.

On to `CC(=O)c1c(C)c2cnc(Nc3ccc(N4CCC(N(C)CC(=O)N5CCC(Nc6nc(NC(C)C)ccc6C(=O)Nc6ccc(N(C)C)nn6)C5)CC4)cn3)nc2n(C2CCCC2)c1=O` (centres unmarked) [CPD-426, 2-((1-(N-(1-(6-((6-acetyl-8-cyclopentyl-5-methyl-7-oxo-7,8-dihydropyrido[2,3-d]pyrimidin-2-yl)amino)pyridin-3-yl)piperidin-4-yl)-N-methylglycyl)pyrrolidin-3-yl)amino)-N-(6-(dimethylamino)pyridazin-3-yl)-6-(isopropylamino)nicotinamide], for which the 50% inhibitory concentration (IC50) was below 50 nM.

On to `CC(=O)c1c(C)c2cnc(Nc3ccc(N4CCC(N(C)CC(=O)N5CC(Nc6nc(NC(C)C)ccc6C(=O)Nc6ccc(N(C)C)nn6)C5)CC4)cn3)nc2n(C2CCCC2)c1=O` [CPD-427, 2-((1-(N-(1-(6-((6-acetyl-8-cyclopentyl-5-methyl-7-oxo-7,8-dihydropyrido[2,3-d]pyrimidin-2-yl)amino)pyridin-3-yl)piperidin-4-yl)-N-methylglycyl)azetidin-3-yl)amino)-N-(6-(dimethylamino)pyridazin-3-yl)-6-(isopropylamino)nicotinamide], for which the half-maximal inhibitory concentration (IC50) was below 50 nM.

As to `CNc1ccc(C(=O)Nc2ccc(N(C)C)nn2)c(NC2CC(C(=O)NC3CCC4(CCN(c5ccc(Nc6ncc7c(C)c(C(C)=O)c(=O)n(C8CCCC8)c7n6)nc5)CC4)C3)C2)n1` (centres unmarked) [CPD-428, 2-((3-((8-(6-((6-acetyl-8-cyclopentyl-5-methyl-7-oxo-7,8-dihydropyrido[2,3-d]pyrimidin-2-yl)amino)pyridin-3-yl)-8-azaspiro[4.5]decan-2-yl)carbamoyl)cyclobutyl)amino)-N-(6-(dimethylamino)pyridazin-3-yl)-6-(methylamino)nicotinamide], the concentration for half-maximal inhibition (IC50) was above 100 nM.

In the case of `CNc1ccc(C(=O)Nc2ccc(N(C)C)nn2)c(NC2CCC(N(C)C(=O)CN3CCN(c4ccc(Nc5ncc6c(C)c(C(C)=O)c(=O)n(C7CCCC7)c6n5)nc4)CC3)C2)n1` (centres unmarked) [CPD-430, 2-((3-(2-(4-(6-((6-acetyl-8-cyclopentyl-5-methyl-7-oxo-7,8-dihydropyrido[2,3-d]pyrimidin-2-yl)amino)pyridin-3-yl)piperazin-1-yl)-N-methylacetamido)cyclopentyl)amino)-N-(6-(dimethylamino)pyridazin-3-yl)-6-(methylamino)nicotinamide], the concentration for half-maximal inhibition (IC50) was above 100 nM.

Take `CC(=O)c1c(C)c2cnc(Nc3ccc(N4CCN(C(C)CC(=O)N5CCC(Nc6nc(NC(C)C)ccc6C(=O)Nc6cn(C)c(C7CC7)n6)CC5)CC4)cn3)nc2n(C2CCCC2)c1=O` (centres unmarked) [CPD-431, 2-((1-(3-(4-(6-((6-acetyl-8-cyclopentyl-5-methyl-7-oxo-7,8-dihydropyrido[2,3-d]pyrimidin-2-yl)amino)pyridin-3-yl)piperazin-1-yl)butanoyl)piperidin-4-yl)amino)-N-(2-cyclopropyl-1-methyl-1H-imidazol-4-yl)-6-(isopropylamino)nicotinamide]: the IC50 was in the range of 50 to 100 nM.
